Measured values published in ChEMBL document CHEMBL4229332, “Novel multi-target azinesulfonamides of cyclic amine derivatives as potential antipsychotics with pro-social and pro-cognitive effects” (Eur J Med Chem, 2018).

Experiments:
[1] = target: 5-hydroxytryptamine receptor 2C (Homo sapiens) (UniProt P28335); test: Displacement of [3H]mesulergine from human 5-HT2C receptor expressed in CHO cells at 10^-6 M after 120 mins by scintillation counting analysis relative to control; format: cell-based
[2] = Tmax in Wistar rat brain at 9 mg/kg per os administered as a single dose by LC-MS/MS analysis; format: ADME, organism-based; conditions: po
[3] = target: Beta-2 adrenergic receptor (Homo sapiens) (UniProt P07550); test: Displacement of CGP 12177 from human adrenergic beta2 receptor expressed in CHO cells at 10^-6 M after 60 mins by scintillation counting method relative to contro; format: cell-based
[4] = target: 5-hydroxytryptamine receptor 1B (Rattus norvegicus) (UniProt P28564); test: Displacement of [125I]-CYP from 5-HT1BR in rat cerebral cortex at 10^-6 M after 120 mins by scintillation counting analysis relative to control
[5] = target: T1, Sodium-dependent serotonin transporter (Homo sapiens, UniProt P31645); test: Displacement of [3H]-imipramine from human SERT expressed in CHO cells at 10^-6 M after 60 mins by scintillation counting method relative to control; format: cell-based
Target sequence in this assay (P31645 whole entry, looked up): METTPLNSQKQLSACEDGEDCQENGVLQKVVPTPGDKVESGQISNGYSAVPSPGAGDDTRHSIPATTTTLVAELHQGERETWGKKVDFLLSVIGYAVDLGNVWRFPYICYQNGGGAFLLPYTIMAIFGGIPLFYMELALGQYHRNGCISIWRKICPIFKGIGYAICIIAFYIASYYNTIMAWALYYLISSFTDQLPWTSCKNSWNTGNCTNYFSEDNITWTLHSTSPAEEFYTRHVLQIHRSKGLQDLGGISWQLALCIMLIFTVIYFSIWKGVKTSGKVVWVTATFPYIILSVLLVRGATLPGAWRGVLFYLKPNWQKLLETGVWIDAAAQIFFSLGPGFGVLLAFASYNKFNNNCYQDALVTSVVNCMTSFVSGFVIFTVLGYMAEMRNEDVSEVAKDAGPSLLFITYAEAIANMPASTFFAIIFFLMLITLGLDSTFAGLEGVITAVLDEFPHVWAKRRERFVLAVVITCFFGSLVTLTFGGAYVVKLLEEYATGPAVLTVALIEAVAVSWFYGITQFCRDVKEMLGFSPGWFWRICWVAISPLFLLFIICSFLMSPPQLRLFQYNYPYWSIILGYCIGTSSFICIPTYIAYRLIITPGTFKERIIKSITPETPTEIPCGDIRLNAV

[6] = target: D(2) dopamine receptor (Homo sapiens) (UniProt P14416); test: Displacement of [3H]7-OH-DPAT from human recombinant dopamine D2S receptor expressed in CHO cells at 10^-6 M after 60 mins by scintillation counting analysis relative to control; format: cell-based
[7] = target: D(2) dopamine receptor (Homo sapiens) (UniProt P14416); test: Antagonist activity at human D2LR expressed in CHO-K1 cells assessed as inhibition of dopamine-induced cAMP accumulation by chemiluminescence-based assay; format: functional, cell-based
[8] = target: T2, 5-hydroxytryptamine receptor 1A (Homo sapiens) (UniProt P08908); test: Antagonist activity at human 5-HT1AR expressed in CHO-K1 cells assessed as inhibition of serotonin-induced cAMP accumulation by chemiluminescence-based assay; format: functional, cell-based
T2 sequence (whole entry): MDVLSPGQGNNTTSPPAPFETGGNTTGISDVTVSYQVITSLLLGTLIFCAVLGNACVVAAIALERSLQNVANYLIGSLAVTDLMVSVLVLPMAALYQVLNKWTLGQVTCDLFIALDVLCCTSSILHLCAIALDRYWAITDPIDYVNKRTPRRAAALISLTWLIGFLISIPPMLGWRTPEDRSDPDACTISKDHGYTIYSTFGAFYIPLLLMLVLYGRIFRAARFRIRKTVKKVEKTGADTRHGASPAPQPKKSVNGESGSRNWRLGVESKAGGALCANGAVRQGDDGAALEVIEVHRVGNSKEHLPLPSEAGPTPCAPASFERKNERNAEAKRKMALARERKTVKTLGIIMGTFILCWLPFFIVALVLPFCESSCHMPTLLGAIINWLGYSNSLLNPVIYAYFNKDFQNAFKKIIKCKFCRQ

[9] = target: T1, Sodium-dependent serotonin transporter; test: Displacement of [3H]imipramine from recombinant human SERT expressed in CHO cells after 60 mins by scintillation counting method; format: cell-based
Target sequence in this assay (P31645 whole entry): as the sequence (P31645 whole entry, looked up) above

[10] = target: T3, Alpha-1A adrenergic receptor (Homo sapiens) (UniProt P35348); test: Antagonist activity at human adrenergic alpha1A receptor expressed in CHO cells assessed as inhibition of epinephrine-induced calcium flux by fluorimetric method; format: functional, cell-based
T3 sequence (whole entry): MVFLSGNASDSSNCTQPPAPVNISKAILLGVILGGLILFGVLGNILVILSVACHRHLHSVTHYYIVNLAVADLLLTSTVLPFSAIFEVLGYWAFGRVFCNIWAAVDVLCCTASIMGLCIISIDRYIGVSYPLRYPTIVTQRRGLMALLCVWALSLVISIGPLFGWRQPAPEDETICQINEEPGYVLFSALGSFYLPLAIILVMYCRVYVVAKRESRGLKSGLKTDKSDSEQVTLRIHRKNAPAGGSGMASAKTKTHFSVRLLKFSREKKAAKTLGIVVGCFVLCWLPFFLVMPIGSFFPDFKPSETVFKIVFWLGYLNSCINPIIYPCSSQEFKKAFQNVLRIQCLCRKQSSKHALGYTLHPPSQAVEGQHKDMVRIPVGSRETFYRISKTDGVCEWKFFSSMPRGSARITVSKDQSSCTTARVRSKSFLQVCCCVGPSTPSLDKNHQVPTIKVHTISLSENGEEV

[11] = target: T4, 5-hydroxytryptamine receptor 2A (Homo sapiens, UniProt P28223); test: Antagonist activity at human 5-HT2AR expressed in HEK293 cells assessed as inhibition of serotonin-induced IP1 accumulation after 60 mins by HTRF method; format: functional, cell-based
[12] = target: 5-hydroxytryptamine receptor 1B (Cricetulus griseus) (UniProt P46636); test: Antagonist activity at 5-HT1BR in CHO cells assessed as inhibition of serotonin-induced response; format: functional, cell-based
[13] = system: Rattus norvegicus; test: Toxicity in Wistar rat assessed as increase in prolactin level at 1 to 3 mg/kg, po after 60 mins by ELISA; format: organism-based; conditions: in vivo, 1 h
[14] = target: T4, 5-hydroxytryptamine receptor 2A; test: Antagonist activity at human 5-HT2AR expressed in HEK293 cells assessed as inhibition of serotonin-induced IP1 accumulation at 10^-6 M by chemiluminescence-based assay; format: functional, cell-based
[15] = target: T4, 5-hydroxytryptamine receptor 2A; test: Displacement of [3H]ketanserin from human recombinant 5-HT2A receptor after 60 mins by scintillation counting analysis
[16] = system: Rattus norvegicus; test: Toxicity in Sprague-Dawley rat assessed as induction of catalepsy at 30 mg/kg, ip measured every 30 mins up to 240 mins by bar test; format: organism-based; conditions: in vivo
[17] = target: Beta-1 adrenergic receptor (Homo sapiens) (UniProt P08588); test: Displacement of [3H]-CGP 12177 from human adrenergic beta1 receptor expressed in HEK293 cells at 10^-6 M after 60 mins by scintillation counting method relative to control; format: cell-based
[18] = target: T5, 5-hydroxytryptamine receptor 1A (Homo sapiens, UniProt P08908); test: Displacement of [3H]-WAY100635 from recombinant full-length human 5-HT1AR expressed in CHO cells after 120 mins by scintillation counting method; format: cell-based
T5 sequence (P08908 whole entry): T2 sequence (whole entry)

[19] = target: T2, 5-hydroxytryptamine receptor 1A (Homo sapiens); test: Displacement of [3H]-WAY100635 from recombinant full-length human 5-HT1AR expressed in CHO cells at 10^-6 M after 120 mins by scintillation counting method relative to control; format: cell-based
[20] = system: Cavia porcellus; test: Cardiotoxicity in guinea pig assessed as QT prolongation at 10 mg/kg, ip; format: toxicity, organism-based; conditions: in vivo
[21] = target: 5-hydroxytryptamine receptor 7 (Homo sapiens, UniProt P34969); test: Antagonist activity at human 5-HT7R expressed in CHO-K1 cells assessed as inhibition of serotonin-induced cAMP accumulation at 10^-6 M after 30 mins by chemiluminescence-based assay; format: functional, cell-based
[22] = target: D(2) dopamine receptor (Homo sapiens) (UniProt P14416); test: Antagonist activity at human D2LR expressed in CHO-K1 cells assessed as inhibition of dopamine-induced calcium flux at 10^-6 M by fluorimetric method; format: functional, cell-based

T4 sequence (P28223 whole entry): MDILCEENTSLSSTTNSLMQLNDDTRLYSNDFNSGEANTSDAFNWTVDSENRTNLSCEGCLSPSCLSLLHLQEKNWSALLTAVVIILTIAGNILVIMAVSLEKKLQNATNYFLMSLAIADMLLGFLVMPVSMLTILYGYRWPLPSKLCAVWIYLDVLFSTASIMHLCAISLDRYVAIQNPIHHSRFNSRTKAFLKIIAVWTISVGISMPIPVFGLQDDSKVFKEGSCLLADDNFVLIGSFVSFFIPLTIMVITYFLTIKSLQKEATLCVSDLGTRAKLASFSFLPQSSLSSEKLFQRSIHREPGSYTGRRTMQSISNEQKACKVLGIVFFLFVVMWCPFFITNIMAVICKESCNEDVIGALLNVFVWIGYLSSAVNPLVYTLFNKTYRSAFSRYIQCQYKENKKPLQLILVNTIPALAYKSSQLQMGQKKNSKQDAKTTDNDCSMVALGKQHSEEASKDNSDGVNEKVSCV
Sequence of D(2) dopamine receptor (Homo sapiens) (P14416 whole entry): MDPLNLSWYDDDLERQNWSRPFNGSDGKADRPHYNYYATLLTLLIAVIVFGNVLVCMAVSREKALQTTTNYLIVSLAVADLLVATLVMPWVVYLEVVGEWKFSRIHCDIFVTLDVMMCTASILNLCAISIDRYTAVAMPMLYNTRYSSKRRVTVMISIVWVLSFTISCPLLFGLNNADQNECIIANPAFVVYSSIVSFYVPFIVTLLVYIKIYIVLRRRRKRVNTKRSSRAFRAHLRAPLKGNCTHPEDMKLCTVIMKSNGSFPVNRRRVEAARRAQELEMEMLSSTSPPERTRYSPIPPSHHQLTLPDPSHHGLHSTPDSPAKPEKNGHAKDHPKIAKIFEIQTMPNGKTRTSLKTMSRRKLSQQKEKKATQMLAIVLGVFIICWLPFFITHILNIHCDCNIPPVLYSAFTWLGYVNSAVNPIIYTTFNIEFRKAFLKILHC
Sequence of Beta-2 adrenergic receptor (Homo sapiens) (P07550 whole entry, looked up): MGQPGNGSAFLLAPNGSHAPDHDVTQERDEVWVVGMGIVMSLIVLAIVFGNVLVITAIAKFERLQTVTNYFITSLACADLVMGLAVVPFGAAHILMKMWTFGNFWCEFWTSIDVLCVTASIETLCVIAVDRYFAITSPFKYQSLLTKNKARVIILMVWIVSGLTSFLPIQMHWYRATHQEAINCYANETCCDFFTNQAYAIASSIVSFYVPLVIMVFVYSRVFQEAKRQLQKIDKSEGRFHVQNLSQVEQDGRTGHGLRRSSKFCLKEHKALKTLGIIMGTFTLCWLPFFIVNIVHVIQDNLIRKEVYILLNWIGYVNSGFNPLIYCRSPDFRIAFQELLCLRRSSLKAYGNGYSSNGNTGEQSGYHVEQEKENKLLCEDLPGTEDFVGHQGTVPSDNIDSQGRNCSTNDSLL
Sequence of Beta-1 adrenergic receptor (Homo sapiens) (P08588 whole entry, looked up): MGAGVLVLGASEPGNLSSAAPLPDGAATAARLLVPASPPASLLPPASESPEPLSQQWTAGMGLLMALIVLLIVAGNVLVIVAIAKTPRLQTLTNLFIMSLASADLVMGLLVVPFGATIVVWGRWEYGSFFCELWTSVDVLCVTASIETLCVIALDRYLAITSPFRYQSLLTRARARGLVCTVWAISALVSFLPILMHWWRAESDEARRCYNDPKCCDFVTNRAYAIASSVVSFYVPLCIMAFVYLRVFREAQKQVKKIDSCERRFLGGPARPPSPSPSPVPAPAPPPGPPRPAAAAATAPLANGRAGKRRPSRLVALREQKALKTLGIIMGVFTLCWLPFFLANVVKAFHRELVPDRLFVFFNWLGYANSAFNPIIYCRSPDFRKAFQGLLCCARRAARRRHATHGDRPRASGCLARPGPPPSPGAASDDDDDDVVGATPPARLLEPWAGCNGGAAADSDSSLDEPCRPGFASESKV
Sequence of 5-hydroxytryptamine receptor 7 (P34969 whole entry): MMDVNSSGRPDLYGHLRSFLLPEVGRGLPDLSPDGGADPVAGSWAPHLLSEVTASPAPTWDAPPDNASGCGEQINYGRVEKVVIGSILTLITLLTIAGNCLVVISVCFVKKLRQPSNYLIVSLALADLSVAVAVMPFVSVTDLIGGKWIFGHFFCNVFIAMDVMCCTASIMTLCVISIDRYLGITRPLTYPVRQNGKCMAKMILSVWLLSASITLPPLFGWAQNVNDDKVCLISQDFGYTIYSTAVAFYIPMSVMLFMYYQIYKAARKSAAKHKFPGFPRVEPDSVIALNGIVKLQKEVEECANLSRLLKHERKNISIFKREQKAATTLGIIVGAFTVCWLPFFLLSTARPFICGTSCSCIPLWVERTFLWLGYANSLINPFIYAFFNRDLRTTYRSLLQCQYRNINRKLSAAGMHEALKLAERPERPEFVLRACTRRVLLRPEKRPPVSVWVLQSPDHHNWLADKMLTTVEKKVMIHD
Sequence of 5-hydroxytryptamine receptor 2C (Homo sapiens) (P28335 whole entry): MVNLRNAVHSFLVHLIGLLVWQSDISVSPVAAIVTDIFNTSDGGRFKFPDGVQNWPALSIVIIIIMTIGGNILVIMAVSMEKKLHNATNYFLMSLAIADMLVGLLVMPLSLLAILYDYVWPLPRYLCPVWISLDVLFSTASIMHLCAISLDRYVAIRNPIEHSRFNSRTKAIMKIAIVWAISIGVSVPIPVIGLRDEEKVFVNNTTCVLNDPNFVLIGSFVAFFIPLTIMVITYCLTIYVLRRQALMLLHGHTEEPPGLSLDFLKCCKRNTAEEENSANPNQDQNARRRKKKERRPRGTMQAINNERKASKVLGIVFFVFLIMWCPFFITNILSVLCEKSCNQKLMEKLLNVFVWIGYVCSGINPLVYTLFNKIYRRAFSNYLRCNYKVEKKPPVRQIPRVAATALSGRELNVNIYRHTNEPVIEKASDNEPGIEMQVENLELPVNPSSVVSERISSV
Sequence of 5-hydroxytryptamine receptor 1B (Rattus norvegicus) (P28564 whole entry): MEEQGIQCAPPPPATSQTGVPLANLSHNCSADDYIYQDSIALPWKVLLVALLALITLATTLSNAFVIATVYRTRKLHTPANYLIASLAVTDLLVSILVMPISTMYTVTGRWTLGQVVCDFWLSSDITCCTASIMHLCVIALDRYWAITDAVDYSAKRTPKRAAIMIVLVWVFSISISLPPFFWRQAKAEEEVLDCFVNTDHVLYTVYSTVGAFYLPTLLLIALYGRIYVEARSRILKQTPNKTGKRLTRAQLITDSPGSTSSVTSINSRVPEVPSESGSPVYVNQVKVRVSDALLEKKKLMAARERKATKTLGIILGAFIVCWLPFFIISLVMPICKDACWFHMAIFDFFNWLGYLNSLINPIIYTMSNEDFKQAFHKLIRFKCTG
Sequence of 5-hydroxytryptamine receptor 1B (Cricetulus griseus) (P46636 whole entry): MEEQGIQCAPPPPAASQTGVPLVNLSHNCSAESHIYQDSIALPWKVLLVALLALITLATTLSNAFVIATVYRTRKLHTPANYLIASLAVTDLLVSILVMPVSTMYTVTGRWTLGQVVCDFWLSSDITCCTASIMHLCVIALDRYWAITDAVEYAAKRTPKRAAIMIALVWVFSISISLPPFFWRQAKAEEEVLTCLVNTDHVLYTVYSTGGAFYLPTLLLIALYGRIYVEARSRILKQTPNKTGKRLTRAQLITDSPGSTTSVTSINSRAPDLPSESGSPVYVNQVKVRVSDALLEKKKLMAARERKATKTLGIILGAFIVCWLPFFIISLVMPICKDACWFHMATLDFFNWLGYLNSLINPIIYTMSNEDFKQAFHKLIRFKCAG

Q: What does the source list for `O=S(=O)(c1cncc2ccccc12)N1CCC[C@H]1CCN1CCN(c2cccc3sccc23)CC1`?
A: inhibition [1]: 80%; Tmax [2]: 1 h; inhibition [3]: 25%; inhibition [4]: 84%; inhibition [5]: 84%; inhibition [6]: 100%; Kb [7]: 3 nM; Kb [8]: 35.6 nM; Ki [9]: 76 nM; Kb [10]: 13 nM; Kb [11]: 2.3 nM; Kb [12]: 210 nM; Activity [13]: Non-Toxic; inhibition [14]: 100%; Ki [15]: 9 nM; Activity [16]: Non-Toxic; inhibition [17]: 31%; Ki [18]: 18 nM; inhibition [19]: 100%

Q: Which results are given for `O=S(=O)(c1cncc2ccccc12)N1CCC[C@H]1CCN1CCN(c2nsc3ccccc23)CC1`?
A: Activity [20]: Non-Toxic; inhibition [21]: 100%; inhibition [22]: 100%
